Experimental findings from patent US20260092057A1, “BCL-XL/BCL-2 DEGRADERS AND USES THEREOF” (Kymera Therapeutics, Inc., priority 2022, published 2026) are described below.

What all share (assay type): cell-based
The target in test [1] is T1, BCL-XL (Homo sapiens, UniProt Q07817).
T1 construct: BCL-XL degradation results in MOLT-4 cells for compounds of the invention; endogenous in cells; host or cells: MOLT-4
The test is described as follows: BCL-XL degradation assay in MOLT-4 cells (ELISA, 6 h). The conditions noted are these: for DC50: read-out: Bcl-xL ELISA in MOLT-4 degradation 6 h: External Abs-DC50.

The test system of test [2] is MOLT-4 cells. Briefly: CTG (CellTiter-Glo) cell viability assay, MOLT-4. The conditions noted are these: MOLT-4, 3 day, read-out: CTG Cell Viability Assay - MOLT-4 3 day: Average external-IC50. The gist of the method:
(§1)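 Viability read by CellTiter-Glo luminescence after 3 days' compound exposure at 37 °C under 5% CO2, with 10,000 cells per well. Dosing was nine 1:3 dilutions starting at 10 µM, DMSO normalized to 0.2%; IC50 values come from three-parameter logistic curve fitting.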

The subject of test [3] is Caki-2 cells. Briefly: CTG (CellTiter-Glo) cell viability assay, Caki-2. The conditions noted are these: Caki-2, 3-day, read-out: CTG Chempartner/PHA- Caki-2 3-day: Average external-IC50. The gist of the method:
as §1
A general note: Cellular ATP, detected with luciferase, serves as a proxy for viable cell number.

The structures appear in SMILES notation. Like-named read-outs stand apart in the source and are kept apart here.

T1 sequence (Q07817 whole entry): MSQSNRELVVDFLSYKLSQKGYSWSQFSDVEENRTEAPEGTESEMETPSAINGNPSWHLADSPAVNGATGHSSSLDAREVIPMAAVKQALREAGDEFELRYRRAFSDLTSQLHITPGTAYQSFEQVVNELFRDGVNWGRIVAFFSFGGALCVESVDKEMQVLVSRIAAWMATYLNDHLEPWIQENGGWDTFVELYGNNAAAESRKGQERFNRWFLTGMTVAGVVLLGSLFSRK

As to `Cc1ncsc1-c1ccc([C@H](C)NC(=O)[C@@H]2C[C@@H](O)CN2C(=O)[C@@H](NC(=O)CCCCC(=O)N2CCC3(CCN(CC[C@H](CSc4ccccc4)Nc4ccc(S(=O)(=O)NC(=O)c5ccc(N6CCN([C@@H](O)c7ccccc7-c7ccc(Cl)cc7)CC6)cc5)cc4S(=O)(=O)C(F)(F)F)CC3)CC2)C(C)(C)C)cc1` [I-126], in test [1], the Dmax lay in the range of 50 to 75% and the 50% degradation concentration (DC50) was 10 to 100 nM. Besides, the IC50 in test [2] (Homo sapiens, MOLT-4, 72 h) was under 100 nM. Also, the IC50 in test [3] (Homo sapiens, CAKI-2, 72 h) is under 5000 nM.

`Cc1ncsc1-c1ccc([C@H](C)NC(=O)[C@@H]2C[C@@H](O)CN2C(=O)[C@@H](NC(=O)CCCCCC(=O)N2CCC(NCC[C@H](CSc3ccccc3)Nc3ccc(S(=O)(=O)NC(=O)c4ccc(N5CCN([C@@H](O)c6ccccc6-c6ccc(Cl)cc6)CC5)cc4)cc3S(=O)(=O)C(F)(F)F)CC2)C(C)(C)C)cc1` [I-127]: in test [1], the maximal degradation (Dmax) was in the range of 50 to 75% and the DC50 is 500 to 1000 nM. The IC50 in test [2] (Homo sapiens, MOLT-4, 72 h) was over 3000 nM. In test [3] (Homo sapiens, CAKI-2, 72 h), the IC50 is over 30000 nM.

With `Cc1ncsc1-c1ccc(CNC(=O)[C@@H]2C[C@@H](O)CN2C(=O)[C@@H](NC(=O)CCCCCCC(=O)N2CCN(C[C@]3(C)CCC(c4ccc(Cl)cc4)=C(CN4CCN(c5ccc(C(=O)NS(=O)(=O)c6ccc(NCCCN7CCOCC7)c(S(=O)(=O)C(F)(F)F)c6)c(Oc6cnc7[nH]ccc7c6)c5)CC4)C3)CC2)C(C)(C)C)cc1` [I-131], in test [1], the Dmax is under 50% and the DC50 lay in the range of 500 to 1000 nM. For the same molecule, the IC50 in test [2] (Homo sapiens, MOLT-4, 72 h) lay within 100 to 1000 nM. Moreover, in test [3], the IC50 is over 30000 nM.

As to `Cc1ncsc1-c1ccc([C@H](C)NC(=O)[C@@H]2C[C@@H](O)CN2C(=O)[C@@H](NC(=O)CCCCCC(=O)N2CCN(CCCNc3ccc(S(=O)(=O)NC(=O)c4ccc(N5CCN(CC6=C(c7ccc(Cl)cc7)CC(C)(C)CC6)CC5Oc5cnc6[nH]ccc6c5)cc4)cc3S(=O)(=O)C(F)(F)F)CC2)C(C)(C)C)cc1` (stereo partly drawn) [I-133], in test [1], the Dmax is under 50% and the DC50 was in the range of 500 to 1000 nM. Also, in test [2] (Homo sapiens, MOLT-4, 72 h), the IC50 is 100 to 1000 nM. In addition, in test [3] (Homo sapiens, CAKI-2, 72 h), the IC50 was over 30000 nM.

As for `Cc1ncsc1-c1ccc(CNC(=O)[C@@H]2C[C@@H](O)CN2C(=O)[C@@H](NC(=O)CCCCCCC(=O)N2CCN(C[C@]3(C)CCC(c4ccc(Cl)cc4)=C(CN4CCN(c5ccc(C(=O)NS(=O)(=O)c6ccc(NCCCN7CCOCC7)c(S(=O)(=O)C(F)(F)F)c6)c(Oc6cnc7[nH]ccc7c6)c5)CC4)C3)CC2)C(C)(C)C)cc1` [I-134], in test [1], the “Bcl-xL ELISA in MOLT-4 degradation 6 h: Dmax %” value is “C (C (<50%))”. The DC50 in test [1] is 500 to 1000 nM. Also, the IC50 in test [2] was 100 to 1000 nM; in test [3], under 5000 nM.

With `C#Cc1ccc([C@H](CO)NC(=O)[C@@H]2C[C@@H](O)CN2C(=O)[C@@H](NC(=O)CCCCCC(=O)N2CCN(CC[C@H](CSc3ccccc3)Nc3ccc(S(=O)(=O)NC(=O)c4ccc(N5CCN([C@@H](O)c6ccccc6-c6ccc(Cl)cc6)CC5)cc4)cc3S(=O)(=O)C(F)(F)F)CC2)C(C)(C)C)cc1` [I-135], in test [1], the Dmax is over 75%. For the same molecule, in test [1], the DC50 lay in the range of 10 to 100 nM. In addition, the IC50 is under 100 nM in test [2] (Homo sapiens, MOLT-4, 72 h) and 10000 to 30000 nM in test [3] (Homo sapiens, CAKI-2, 72 h).

By Dmax is commonly meant the greatest extent of degradation seen. In general, DC50 refers to the concentration at which degradation of the target reaches its halfway point.
